# Values of other authors in US5505931A, “Acid cleavable compounds, their preparation and use as bifunctional acid-labile crosslinking agents” (The Dow Chemical Company, priority 1993, dated 1996).
# System: tumor
# Settings: unconjugated controls
compound,measurement,value
COc1cccc2c1C(=O)c1c(O)c3c(c(O)c1C2=O)C[C@@](O)(C(C)=O)C[C@@H]3O[C@H]1C[C@H](N)[C@H](O)[C@H](C)O1 [daunomycin],response in control experiments,inferior response
